Reference: paper PMC11025159 (Journal of Translational Medicine, 2024)
Where “and” joins values, the source holds several entries; their conditions need not be identical. Equal entries are not always repeated. Where two headings read alike, the source gives them in different places.

Key:
[1] = Body weight of athymic nude mice during topical treatment; format: in vivo, athymic nude mice (NU/J Foxn1nu); details: individual mice
Method: . The groups are as follows: Group 1-Control (untreated), Group 2-Vehicle control, Group 3-tofacitinib citrate (0.8 mg/Kg), Group 4-tofacitinib citrate (0.08 mg/Kg), Group 5-MJ04 (0.08 mg/Kg), Group 6-MJ04 (0.04 mg/Kg), Group 7-MJ04 (0.016 mg/Kg), Group 8-baricitinib (0.1 mg/Kg), Group 9-baricitinib (0.04 mg/Kg), and Group 10-baricitinib (0.02 mg/Kg). At the end of the experiment, skin samples were collected and preserved in 10% neutral buffered formalin for tissue sectioning and staining using haematoxylin and eosin (H&E). […]

[2] = biological target: T1, JAK1 (Homo sapiens, UniProt P23458); test: Cell-free kinase assay JAK1; format: biochemical
T1 construct: purchased Promega Corporation VA7207
Method: (§1) The cell-free kinase assays of small molecules were determined by following the manufacturer-recommended protocols. Different concentrations in triplicate were used to determine the IC50 value of the hit molecules (active molecules). For data analysis, GraphPad Prism V9.5 Software and a sigmoidal dose–response (variable slope) equation were used. Each value represents an average of three replicates per concentration.

[3] = biological target: T2, JAK2 (Homo sapiens, UniProt O60674); test: Cell-free kinase assay JAK2; format: biochemical; details: for IC50: read-out: IC50 JAK 2
T2 construct: purchased BPS Bioscience 79,520
Method: as §1

[4] = biological target: T3, GSK-3-β (Homo sapiens, UniProt P49841); test: Cell-free kinase assay GSK-3-β; format: biochemical
T3 construct: purchased Promega Corporation V1991
Method: as §1

[5] = biological target: T4, IGF-1R (Homo sapiens, UniProt P08069); test: Cell-free kinase assay IGF-1R; format: biochemical
T4 construct: purchased Promega Corporation V3581
Method: as §1

[6] = biological target: T5, PI-3-K α (Homo sapiens, UniProt P42336); test: Cell-free kinase assay PI-3-K α; format: biochemical; details: Km ATP
T5 construct: purchased Promega Corporation V1690
Method: as §1

[7] = biological target: T6, PI-3-K β (Homo sapiens, UniProt P42338); test: Cell-free kinase assay PI-3-K β; format: biochemical; details: Km ATP
T6 construct: purchased Promega Corporation V1690
Method: as §1

[8] = biological target: T7, PI-3-K γ (Homo sapiens, UniProt P48736); test: Cell-free kinase assay PI-3-K γ; format: biochemical
T7 construct: purchased Promega Corporation V1690
Method: as §1

[9] = test system: Panc-2; test: MTT cell viability assay Panc-2; format: cell-based; details: 48 h
Method: (§2) Cell viability was evaluated using an MTT colorimetric assay. Cells were seeded (10^5 cells/mL) in 96-well plates and allowed to grow overnight at 37 ℃ with 5% CO2 in a cell-culture incubator. On the following day, the cells were treated with small molecules at different concentrations (0.2–10 micro-molar) or vehicle (DMSO). Cells were then further incubated for 48 h.

[10] = test system: HEK-293; test: MTT cell viability assay HEK-293; format: cell-based, human
Method: as §2

[11] = test system: human hair follicles; test: Human hair follicle organ culture ex-vivo; details: 20 days culture, vs vehicle and untreated follicles
Method: Hair follicles were collected from three single donors of androgenetic alopecia undergoing hair transplant surgery at the Department of Dermatology, All India Institute of Medical Sciences, New Delhi, India. All experimental procedures were approved by the Institutional Ethics Committee […] of AIIMS, New Delhi (IEC approval No: 550/01.09.2023). Donors were above 18 years of age. Isolated hair follicles were cultured as per the previously described method of Philpott et al.. Immediately after isolation, follicles were placed in 24 well plates under sterile conditions into ice-cold Williams’ medium E (Sigma) with the different concentrations of MJ04 for 20 days. Half media was replaced with fresh media every 3rd day for 20 days. Basal length, i.e., length on the day of starting culture and post treatment was measured. Photographs were taken with a Nikon digital camera.

[12] = test system: IFN-γ-producing CD4+ T-cells; test: T-cell differentiation of splenocytes, IFN-γ in CD4+ T-cells (Th1), flow cytometry; format: cell-based, C57BL/6 mice; details: dose-dependent, 0.01-10 µM
Method: Splenocytes were isolated from the spleen of C57BL/6 mice. The whole spleen was crushed in a complete RPMI medium and passed through the 40 µm cell filter to obtain a single-cell suspension. The cell suspension was centrifuged at 300×g for 5 min, and the pellet was resuspended into the 1× RBC lysis buffer (Life Technology, Thermofisher, USA) for 10 min at room temperature to lyse the red blood cells. The sample was further centrifuged at the same speed and duration, and the pellet was resuspended in complete RPMI medium. Now, splenocytes were seeded into the 96-well plates (U bottom) at 3 × 10^5 cells/well density. […] For Th1 and Tc1 differentiation, IL-12 (5 ng/ml) was added and allowed to grow for four days.
Prior to harvesting, cells were further stimulated with PMA (50 ng/ml), ionomycin (1000 ng/ml), and glogi Stop (as per manufacturer recommendation) for 4 h. The plate was spun down at 2000 rpm for 10 min and washed once with FACS buffer (3% FBS, 1× PBS, and 200 mM EDTA). Cells were stained with anti-CD4-PerCP and anti-CD8-FITC antibodies (BD, Biosciences) in the dilution 1:400 by adding 100 µl/well and incubated at RT for 60 min. […] Cells were finally washed and resuspended into FACS buffer, and data was recorded into the BD accuri C6 flow cytometer, and data were analyzed by Flowjo.

[13] = Stability of the formulation used for in vivo studies (HPLC); format: physicochemical; details: ethanol / ethanol:PEG-300, room temperature, 0-48 h
Method: The stability study of the lead compound (MJ04) was performed using HPLC analysis wherein the samples were studied after different time intervals. The 0.6 mg of MJ04 was taken and dissolved in 1 mL of ethanol to achieve 0.6 mg/mL concentration. Out of this, 500 µL was further diluted to 0.3 mg/mL by adding 500 µL ethanol to it (Ethanol sample). To remaining 500 µL, we added 500 µL PEG-300 to achieve final concentration of 0.3 mg /mL (Ethanol:PEG sample). HPLC of these samples was performed at various time points (0 h, 12 h, 24 h and 48 h) upon incubating at room temperature. The HPLC of samples was performed by RP-18 end capped; […], 4.6 × 250 mm. The mobile phase containing water (30%) and acetonitrile (70%) was used at the flow rate of 1 mL/min at a column temperature of 27 °C at 210 nm wavelength. A volume of 5 µL of sample was injected and the total run time of the assay was 30 min using the isocratic technique in the HPLC system.

[14] = Acute dermal toxicity (OECD 402) in Wistar rats

T2 sequence (O60674 whole entry): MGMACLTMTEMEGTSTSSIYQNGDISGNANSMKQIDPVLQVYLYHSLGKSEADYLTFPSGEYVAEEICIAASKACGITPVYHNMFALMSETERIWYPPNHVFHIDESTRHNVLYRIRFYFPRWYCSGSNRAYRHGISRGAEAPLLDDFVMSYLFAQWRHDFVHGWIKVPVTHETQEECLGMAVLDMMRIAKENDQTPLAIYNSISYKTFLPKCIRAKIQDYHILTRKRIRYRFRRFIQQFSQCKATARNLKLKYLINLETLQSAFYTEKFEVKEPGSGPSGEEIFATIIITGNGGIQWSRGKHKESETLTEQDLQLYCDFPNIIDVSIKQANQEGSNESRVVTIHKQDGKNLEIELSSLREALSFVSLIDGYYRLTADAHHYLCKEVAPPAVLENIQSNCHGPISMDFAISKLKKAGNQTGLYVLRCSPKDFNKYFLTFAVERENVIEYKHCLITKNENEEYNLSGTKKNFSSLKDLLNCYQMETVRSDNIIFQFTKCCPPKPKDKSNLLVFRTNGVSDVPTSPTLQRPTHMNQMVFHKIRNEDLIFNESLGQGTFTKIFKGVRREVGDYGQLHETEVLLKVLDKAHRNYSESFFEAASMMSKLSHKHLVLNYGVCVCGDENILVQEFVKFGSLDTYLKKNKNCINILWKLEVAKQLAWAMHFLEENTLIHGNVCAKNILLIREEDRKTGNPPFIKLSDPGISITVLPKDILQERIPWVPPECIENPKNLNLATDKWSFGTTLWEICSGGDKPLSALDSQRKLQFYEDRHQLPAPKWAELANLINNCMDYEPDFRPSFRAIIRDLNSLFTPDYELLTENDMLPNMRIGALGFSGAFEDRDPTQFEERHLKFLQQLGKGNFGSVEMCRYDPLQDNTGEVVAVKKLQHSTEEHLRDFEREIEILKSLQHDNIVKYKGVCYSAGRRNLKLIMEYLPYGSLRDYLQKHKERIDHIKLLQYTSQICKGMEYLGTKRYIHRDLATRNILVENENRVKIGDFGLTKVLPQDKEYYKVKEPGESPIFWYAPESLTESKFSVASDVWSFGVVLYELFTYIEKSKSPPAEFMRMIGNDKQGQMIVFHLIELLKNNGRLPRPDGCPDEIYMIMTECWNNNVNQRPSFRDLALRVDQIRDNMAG
T1 sequence (P23458 whole entry): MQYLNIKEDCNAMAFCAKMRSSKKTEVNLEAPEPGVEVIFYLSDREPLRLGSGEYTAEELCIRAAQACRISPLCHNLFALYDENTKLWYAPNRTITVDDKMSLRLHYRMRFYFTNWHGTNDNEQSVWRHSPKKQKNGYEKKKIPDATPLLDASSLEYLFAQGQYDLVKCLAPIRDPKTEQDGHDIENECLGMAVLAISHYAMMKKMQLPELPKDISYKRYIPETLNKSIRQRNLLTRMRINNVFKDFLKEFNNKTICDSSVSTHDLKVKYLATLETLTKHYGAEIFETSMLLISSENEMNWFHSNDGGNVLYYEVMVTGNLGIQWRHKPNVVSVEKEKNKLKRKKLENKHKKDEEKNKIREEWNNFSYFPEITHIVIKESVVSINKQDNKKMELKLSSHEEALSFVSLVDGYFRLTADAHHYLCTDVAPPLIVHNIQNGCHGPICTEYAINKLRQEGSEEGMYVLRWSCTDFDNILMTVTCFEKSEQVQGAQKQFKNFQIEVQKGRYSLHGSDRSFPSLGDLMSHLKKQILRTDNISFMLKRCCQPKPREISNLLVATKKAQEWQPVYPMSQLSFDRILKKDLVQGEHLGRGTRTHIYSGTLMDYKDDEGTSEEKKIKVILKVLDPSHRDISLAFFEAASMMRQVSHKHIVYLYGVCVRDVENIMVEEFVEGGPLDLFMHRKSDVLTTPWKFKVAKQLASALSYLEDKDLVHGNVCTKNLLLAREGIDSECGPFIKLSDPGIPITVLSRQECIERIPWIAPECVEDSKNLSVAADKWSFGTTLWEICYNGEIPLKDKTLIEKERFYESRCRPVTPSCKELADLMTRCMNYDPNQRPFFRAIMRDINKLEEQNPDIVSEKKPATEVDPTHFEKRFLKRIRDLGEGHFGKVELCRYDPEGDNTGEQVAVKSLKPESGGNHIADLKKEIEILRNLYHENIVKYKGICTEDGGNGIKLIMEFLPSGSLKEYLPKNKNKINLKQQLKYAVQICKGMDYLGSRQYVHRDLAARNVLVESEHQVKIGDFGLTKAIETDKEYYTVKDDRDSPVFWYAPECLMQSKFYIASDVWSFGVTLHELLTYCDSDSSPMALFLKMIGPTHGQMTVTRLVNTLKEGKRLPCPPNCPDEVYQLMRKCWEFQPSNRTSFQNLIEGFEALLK
T7 sequence (P48736 whole entry): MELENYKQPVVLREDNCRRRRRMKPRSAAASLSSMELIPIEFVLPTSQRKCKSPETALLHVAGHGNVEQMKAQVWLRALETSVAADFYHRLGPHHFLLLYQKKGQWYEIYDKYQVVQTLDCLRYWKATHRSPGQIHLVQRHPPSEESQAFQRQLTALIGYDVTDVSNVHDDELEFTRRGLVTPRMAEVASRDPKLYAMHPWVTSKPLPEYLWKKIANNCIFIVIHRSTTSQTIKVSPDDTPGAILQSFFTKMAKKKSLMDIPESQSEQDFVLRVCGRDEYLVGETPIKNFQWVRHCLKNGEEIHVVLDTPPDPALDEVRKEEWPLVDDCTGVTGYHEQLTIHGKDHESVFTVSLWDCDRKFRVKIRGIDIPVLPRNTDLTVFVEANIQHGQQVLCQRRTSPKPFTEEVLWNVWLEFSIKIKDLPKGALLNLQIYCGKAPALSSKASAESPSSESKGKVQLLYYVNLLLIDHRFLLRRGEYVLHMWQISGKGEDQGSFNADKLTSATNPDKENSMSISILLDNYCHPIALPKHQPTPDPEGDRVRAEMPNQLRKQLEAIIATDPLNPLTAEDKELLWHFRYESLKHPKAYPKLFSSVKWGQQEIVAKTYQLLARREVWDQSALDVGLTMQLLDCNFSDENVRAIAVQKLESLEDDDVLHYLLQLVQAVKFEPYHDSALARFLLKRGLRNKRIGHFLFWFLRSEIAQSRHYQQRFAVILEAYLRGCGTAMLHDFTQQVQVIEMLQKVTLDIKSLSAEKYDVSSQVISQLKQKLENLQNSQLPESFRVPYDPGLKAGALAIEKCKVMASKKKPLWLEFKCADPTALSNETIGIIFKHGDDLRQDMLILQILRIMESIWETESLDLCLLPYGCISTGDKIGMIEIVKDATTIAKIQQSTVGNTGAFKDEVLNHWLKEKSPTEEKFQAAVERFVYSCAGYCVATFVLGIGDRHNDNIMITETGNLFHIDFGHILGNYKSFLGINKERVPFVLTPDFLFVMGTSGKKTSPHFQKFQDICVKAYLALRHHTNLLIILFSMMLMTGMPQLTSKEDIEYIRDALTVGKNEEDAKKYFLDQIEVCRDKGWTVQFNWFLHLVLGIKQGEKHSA
T3 sequence (P49841 whole entry): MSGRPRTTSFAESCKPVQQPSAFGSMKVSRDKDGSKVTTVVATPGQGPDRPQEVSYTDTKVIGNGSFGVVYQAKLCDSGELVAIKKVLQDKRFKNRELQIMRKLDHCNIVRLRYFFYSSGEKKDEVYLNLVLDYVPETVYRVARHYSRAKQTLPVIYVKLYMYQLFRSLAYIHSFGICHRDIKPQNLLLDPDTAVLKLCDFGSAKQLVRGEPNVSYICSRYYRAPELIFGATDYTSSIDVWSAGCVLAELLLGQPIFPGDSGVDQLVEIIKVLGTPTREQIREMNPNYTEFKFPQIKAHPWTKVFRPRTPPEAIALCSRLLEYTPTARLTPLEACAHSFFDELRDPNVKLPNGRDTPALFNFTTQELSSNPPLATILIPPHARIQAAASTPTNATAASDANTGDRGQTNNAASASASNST

With `CCS(=O)(=O)N1CC(CC#N)(n2cc(-c3ncnc4[nH]ccc34)cn2)C1` [Baricitinib, baricitinib, reference compound] the “Weight of nude mice (NU/J Foxn1nu)” value ([1]; 0.02 mg/kg, DAY 1) was 17.9 and 18.3 and 18.5 and 18.7 and 19.2, the “Weight of nude mice (NU/J Foxn1nu)” value ([1]; 0.02 mg/kg, DAY 7) was 19.4 and 19.8 and 20.2 and 20.4 and 20.7 and the “Weight of nude mice (NU/J Foxn1nu)” value ([1]; 0.02 mg/kg, DAY 14) was 21.2 and 21.3 and 21.7 and 22.1 and 22.5. The “Weight of nude mice (NU/J Foxn1nu)” value ([1]; 0.02 mg/kg, DAY 21) was 22.6 and 22.8 and 23.2 and 24.2 and 24.4, the “Weight of nude mice (NU/J Foxn1nu)” value ([1]; 0.02 mg/kg, DAY 28) was 24.3 and 24.8 and 24.9 and 25.8 and 26.2 and the “Weight of nude mice (NU/J Foxn1nu)” value ([1]; 0.04 mg/kg, DAY 1) was 17.9 and 18.5 and 18.6 and 18.7 and 19.1. For the same molecule, the “Weight of nude mice (NU/J Foxn1nu)” value ([1]; 0.04 mg/kg, DAY 7) was 19.2 and 19.8 and 20.1 (2×) and 20.5, the “Weight of nude mice (NU/J Foxn1nu)” value ([1]; 0.04 mg/kg, DAY 14) was 20.8 and 20.9 and 21.4 and 21.5 and 21.8 and the “Weight of nude mice (NU/J Foxn1nu)” value ([1]; 0.04 mg/kg, DAY 21) was 22.4 and 22.6 and 23.1 and 23.3 and 23.5. The “Weight of nude mice (NU/J Foxn1nu)” value ([1]; 0.04 mg/kg, DAY 28) was 24.6 and 24.8 and 25.3 and 25.4 and 25.7, the “Weight of nude mice (NU/J Foxn1nu)” value ([1]; 0.1 mg/kg, DAY 1) was 18.5 and 18.6 and 18.7 and 19.3 and 18.8 and the “Weight of nude mice (NU/J Foxn1nu)” value ([1]; 0.1 mg/kg, DAY 7) was 19.7 and 19.8 and 21.1 and 20.1 and 20.4. For the same molecule, the “Weight of nude mice (NU/J Foxn1nu)” value ([1]; 0.1 mg/kg, DAY 14) was 21.3 and 22.9 and 21.8 and 22.1, the “Weight of nude mice (NU/J Foxn1nu)” value ([1]; 0.1 mg/kg, DAY 21) was 22.6 and 23.2 and 24.3 and 23.6 and 23.8 and the “Weight of nude mice (NU/J Foxn1nu)” value ([1]; 0.1 mg/kg, DAY 28) was 25.3 and 24.8 and 25.7 and 25.8 and 25.4.
In the case of `Fc1ccc(-c2cnc3[nH]cc(-c4ccnc(NC5CC5)n4)c3c2)cc1` [MJ04], the IC50 ([2]; 1mM ATP) is reported as greater than 10000 nM, the “Fold of selectivity vs. JAK3” value ([2]; JAK1) is reported as 95 and the IC50 ([2]; Km ATP) is reported as 193 nM. For the same molecule, the IC50 ([3]; 1mM ATP) was greater than 10000 nM, the “Fold of selectivity vs. JAK3” value ([3]; JAK 2) was 126 and the IC50 ([3]; Km ATP) was 256 nM. For the same molecule, the “Fold of selectivity vs. JAK3” value ([4]; GSK-3-β) was 908, the IC50 ([4]; Km ATP) was 1840 nM and the “Fold of selectivity vs. JAK3” value ([5]; IGF-1R) was 476. For the same molecule, the IC50 ([5]; Km ATP) was 967 nM, the IC50 [6] was greater than 10000 nM and the IC50 [7] was greater than 10000 nM. The IC50 ([8]; Km ATP) was 3670 nM, the “Fold of selectivity vs. JAK3” value ([8]; PI-3-K γ) was 1806 and the IC50 [9] was 2770 nM. The “safety ratio (IC50 against HEK293 normal cell line versus IC50 in A549 cancer cell line)” value [10] was roughly 26, the IC50 ([10]; Homo sapiens, HEK293, read-out: IC50 HEK-293, MTT, 48 h, normal cell line) was greater than 100000 nM and the “length of hair shafts” value [11] was “significantly increased the length of hair shafts”. For the same molecule, the “differentiation of naïve T cells into Th1 subsets” value [12] was “inhibits the differentiation of naïve T cells”, the “stability in the formulation used for animal experiments” value [13] was “stable” and the “mortality and clinical signs of toxicity” value ([14]; 2000 mg/kg body weight, single dermal dose, 14 days) was “no mortality and clinical signs of toxicity”. It also gave an LD50 at 14 days ([14]; Wistar, rat, in vivo, topical or ocular) greater than 2000 mg/kg.
